# Like-named read-outs stand apart in the source and are kept apart here.
# Assay: Ocular tissue concentrations (aqueous humor, vitreous humor, iris, retina, choroid, cornea) after topical ocular, subcutaneous and intravitreal administration
# Format: in vivo, New Zealand White rabbits
# Conditions: for concentration at 0.5 h / concentration at 0.5 hr / concentration at 1 h / concentration at 2 h / concentration at 4 h: subcutaneous, 5 mg/kg/dose; for Cornea Conc. (ng/mL) OS: TABLE 16: Cornea homogenate
# Experimental: To measure the concentration of Compound 1 in plasma and ocular tissues following topical ocular, subcutaneous, and intravitreal administration, New Zealand White rabbits were administered Compound 1, and plasma and ocular samples were collected at pre-determined time points. Compound 1 formulations were prepared fresh on each day of dosing.
# Ocular tissue samples from both eyes of each animal were collected and weights were recorded. Plasma and ocular tissue sample concentrations of Compound 1 were determined by LC-MS/MS.
# New Zealand White rabbits weighing 2.5 to 3.5 kg were used on this study. Rabbits were housed one per cage. Animals were not fasted and only healthy animals with no ocular illness were used. Two rabbits per group were sacrificed at each of four ocular tissue sampling time points for a total of eight rabbits per group.
# Animals were anesthetized for ocular (topical) and intravitreal dosing following the 12IA7 IACUC protocol. Each rabbit received a bolus dose of test formulation either via topical ocular administration 3 times daily on Days 1 and 2 (at 0, 6, and 12 hours), and once on Day 3 (at 0 hours) into both eyes; via intravitreal administration into both eyes once on Day 1 (at 0 hours); or via subcutaneous administration 2 times daily on Days 1 and 2 (at 0 and 8 hours) and once daily on Day 3 (at 0 hours). Doses were given within an approximately 1 hour window each day where applicable.
# On Day 1, for intravitreal administration, or on Day 3, for topical ocular and subcutaneous administration, at the appropriate ocular tissue collection time points, animals were euthanized and both eyes were enucleated immediately. Following enucleation, each eye was rinsed with phosphate-buffered saline. Ocular tissue samples from both eyes of each animal were collected at predetermined time points and weights were recorded. All the samples were frozen immediately on dry ice, and stored at −60° C. to −80° C. pending bioanalysis.
# An LC-MS/MS method was developed for the determination of Compound 1 in rabbit aqueous tissues (plasma, aqueous and vitreous humor) and solid ocular tissue samples. A pre-study standard curve was analyzed to determine the specificity, range, and lower limit of quantitation of the method. Plasma and tissue homogenate study samples were extracted and analyzed. All the samples were treated identically to the standards.
# One eight-point standard curve was used in each analytical batch. To be accepted, each batch must have had at least five of eight standards with accuracy within ±20% of nominal, except at the lower limit of quantification (LLOQ), where ±25% was acceptable.
# Concentration versus time data is plotted in FIGS. 3-16. All data are expressed as ng/g of the free drug. Samples that were below the limit of quantitation (0.2 ng/mL) were not used in the calculation of averages.
smiles,measurement,setting,value
COC(=O)N[C@@H](Cc1ccccc1)C(=O)N[C@@H](Cc1ccc(NS(=O)(=O)O)cc1)c1csc(-c2cccs2)n1 [Compound 1],concentration at 48 h,"New Zealand White, rabbit, retina, other: intravitreal, 2.5 mg/eye, Retina, 48 hr, sodium salt, intravitreal 2.5 mg/eye, Group 4, read-out: Retina Avg.",72600 ng/g
same,concentration at 72 h,"New Zealand White, rabbit, retina, other: intravitreal, 2.5 mg/eye, Retina, OD, sodium salt, intravitreal 2.5 mg/eye, Group 4, read-out: Retina Conc. (ng/g) OD",8250 ng/g
same,concentration at 72 h,"New Zealand White, rabbit, retina, other: intravitreal, 2.5 mg/eye, Retina, OS, sodium salt, intravitreal 2.5 mg/eye, Group 4, read-out: Retina Conc. (ng/g) OS",4070 ng/g
same,concentration at 72 h,"New Zealand White, rabbit, retina, other: intravitreal, 2.5 mg/eye, Retina, average, intravitreal 2.5 mg/eye (group 5), read-out: Avg.",109000 ng/g
same,concentration at 72 h,"New Zealand White, rabbit, retina, other: intravitreal, 2.5 mg/eye, Retina, left eye, intravitreal 2.5 mg/eye (group 5), individual animals, read-out: Conc. (ng/g) OS",119000 ng/g
same,concentration at 72 h,"New Zealand White, rabbit, retina, other: intravitreal, 2.5 mg/eye, Retina, right eye, intravitreal 2.5 mg/eye (group 5), individual animals, read-out: Conc. (ng/g) OD",109000 ng/g
same,concentration at 72 h,"New Zealand White, rabbit, retina, other: intravitreal, 2.5 mg/eye, Retina, sodium salt, intravitreal 2.5 mg/eye, Group 4, read-out: Retina Avg.",6060 ng/g
same,concentration at 0.5 h,"New Zealand White, rabbit, retina, Retina, OD, sodium salt, subcutaneous 5 mg/kg/dose, Group 2, read-out: Retina Conc. (ng/g) OD",30.5 ng/g
same,concentration at 0.5 hr,"New Zealand White, rabbit, retina, Retina, OS, sodium salt, subcutaneous 5 mg/kg/dose, Group 2, read-out: Retina Conc. (ng/g) OS",48 ng/g
same,concentration at 0.5 h,"New Zealand White, rabbit, retina, Retina, free acid, subcutaneous 5 mg/kg/dose, Group 3, read-out: Retina Average",38.7 ng/g
same,concentration at 0.5 hr,"New Zealand White, rabbit, retina, Retina, sodium salt, subcutaneous 5 mg/kg/dose, Group 2, read-out: Retina Average",40.5 ng/g
same,concentration at 1 h,"New Zealand White, rabbit, retina, Retina, 1 hr, OD, free acid, subcutaneous 5 mg/kg/dose, Group 3, read-out: Retina Conc. (ng/g) OD",10.4 ng/g
same,concentration at 1 h,"New Zealand White, rabbit, retina, Retina, 1 hr, OD, sodium salt, subcutaneous 5 mg/kg/dose, Group 2, read-out: Retina Conc. (ng/g) OD",22.4 ng/g
same,concentration at 1 h,"New Zealand White, rabbit, retina, Retina, 1 hr, OS, free acid, subcutaneous 5 mg/kg/dose, Group 3, read-out: Retina Conc. (ng/g) OS",6.93 ng/g
same,concentration at 1 h,"New Zealand White, rabbit, retina, Retina, 1 hr, OS, sodium salt, subcutaneous 5 mg/kg/dose, Group 2, read-out: Retina Conc. (ng/g) OS",43.2 ng/g
same,concentration at 1 h,"New Zealand White, rabbit, retina, Retina, 1 hr, free acid, subcutaneous 5 mg/kg/dose, Group 3, read-out: Retina Average",10.2 ng/g
same,concentration at 1 h,"New Zealand White, rabbit, retina, Retina, 1 hr, sodium salt, subcutaneous 5 mg/kg/dose, Group 2, read-out: Retina Average",32.6 ng/g
same,concentration at 2 h,"New Zealand White, rabbit, retina, Retina, 2 hr, OD, free acid, subcutaneous 5 mg/kg/dose, Group 3, read-out: Retina Conc. (ng/g) OD",6.31 ng/g
same,concentration at 2 h,"New Zealand White, rabbit, retina, Retina, 2 hr, OD, sodium salt, subcutaneous 5 mg/kg/dose, Group 2, read-out: Retina Conc. (ng/g) OD",15 ng/g
same,concentration at 2 h,"New Zealand White, rabbit, retina, Retina, 2 hr, OS, free acid, subcutaneous 5 mg/kg/dose, Group 3, read-out: Retina Conc. (ng/g) OS",6.93 ng/g
same,concentration at 2 h,"New Zealand White, rabbit, retina, Retina, 2 hr, OS, sodium salt, subcutaneous 5 mg/kg/dose, Group 2, read-out: Retina Conc. (ng/g) OS",17.8 ng/g
same,concentration at 2 h,"New Zealand White, rabbit, retina, Retina, 2 hr, free acid, subcutaneous 5 mg/kg/dose, Group 3, read-out: Retina Average",10.5 ng/g
same,concentration at 2 h,"New Zealand White, rabbit, retina, Retina, 2 hr, sodium salt, subcutaneous 5 mg/kg/dose, Group 2, read-out: Retina Average",16.4 ng/g
same,concentration at 4 h,"New Zealand White, rabbit, retina, Retina, 4 hr, OD, sodium salt, subcutaneous 5 mg/kg/dose, Group 2, read-out: Retina Conc. (ng/g) OD",19.7 ng/g
same,concentration at 4 h,"New Zealand White, rabbit, retina, Retina, 4 hr, free acid, subcutaneous 5 mg/kg/dose, Group 3, read-out: Retina Average",35.3 ng/g
same,concentration at 4 h,"New Zealand White, rabbit, retina, Retina, 4 hr, sodium salt, subcutaneous 5 mg/kg/dose, Group 2, read-out: Retina Average",19.7 ng/g
same,concentration at 0.5 h,"New Zealand White, rabbit, retina, TABLE 16: Retina, free acid, subcutaneous 5 mg/kg/dose, Group 3, read-out: Retina Average",38.7 ng/g
same,concentration at 1 h,"New Zealand White, rabbit, retina, TABLE 16: Retina, 1 hr, OD, free acid, subcutaneous 5 mg/kg/dose, Group 3, read-out: Retina Conc. (ng/g) OD",10.4 ng/g
same,concentration at 1 h,"New Zealand White, rabbit, retina, TABLE 16: Retina, 1 hr, OS, free acid, subcutaneous 5 mg/kg/dose, Group 3, read-out: Retina Conc. (ng/g) OS",6.93 ng/g
same,concentration at 1 h,"New Zealand White, rabbit, retina, TABLE 16: Retina, 1 hr, free acid, subcutaneous 5 mg/kg/dose, Group 3, read-out: Retina Average",10.2 ng/g
same,concentration at 2 h,"New Zealand White, rabbit, retina, TABLE 16: Retina, 2 hr, OD, free acid, subcutaneous 5 mg/kg/dose, Group 3, read-out: Retina Conc. (ng/g) OD",6.31 ng/g
same,concentration at 2 h,"New Zealand White, rabbit, retina, TABLE 16: Retina, 2 hr, OS, free acid, subcutaneous 5 mg/kg/dose, Group 3, read-out: Retina Conc. (ng/g) OS",6.93 ng/g
same,concentration at 2 h,"New Zealand White, rabbit, retina, TABLE 16: Retina, 2 hr, free acid, subcutaneous 5 mg/kg/dose, Group 3, read-out: Retina Average",10.5 ng/g
same,concentration at 4 h,"New Zealand White, rabbit, retina, TABLE 16: Retina, 4 hr, free acid, subcutaneous 5 mg/kg/dose, Group 3, read-out: Retina Average",35.3 ng/g
same,Retina Conc. (ng/mL) OD,"Retina homogenate, 4 hr, OD, free acid, subcutaneous 5 mg/kg/dose, Group 3",BLOQ (Below the limit of quantitation (0.5 ng/mL))
same,Retina Conc. (ng/mL) OS,"Retina homogenate, 4 hr, OS, sodium salt, subcutaneous 5 mg/kg/dose, Group 2",BLOQ (Below the limit of quantitation (0.5 ng/mL))
same,Cornea Conc. (ng/mL) OS,"1 hr, OS, free acid, subcutaneous 5 mg/kg/dose, Group 3",BLOQ (Below the limit of quantitation (0.5 ng/mL))
same,Cornea Conc. (ng/mL) OS,"2 hr, OS, free acid, subcutaneous 5 mg/kg/dose, Group 3",BLOQ (Below the limit of quantitation (0.5 ng/mL))
same,Retina Conc. (ng/mL) OD,"TABLE 16: Retina homogenate, 4 hr, OD, free acid, subcutaneous 5 mg/kg/dose, Group 3",BLOQ (Below the limit of quantitation (0.5 ng/mL))
same,rank order of exposure in aqueous and vitreous humor by route,"intravitreal, topical ocular, subcutaneous administration",intravitreal>>topical ocular>subcutaneous administration
